What was measured:
S1P3 receptor = S1P3 receptor (Homo sapiens, UniProt Q99500); assay: GTP[γ35S] binding assay, S1P3 receptor agonist activity; format: biochemical
[1] = test system: human retinal vascular endothelial cells (HRMECs); assay: Permeability of human retinal vascular endothelial cells (Transwell, FITC-dextran); format: cell-based; conditions: HRMECs in Transwell; 0.3 nM, 3 nM or 30 nM; 60 minutes pre-culture, 60 minutes after FITC-dextran (40 kDa)
Experimental: The upper chamber of Transwell (diameter: 6.5 mm, pore size: 0.4 μm: Corning Incorporated) coated with collagen and fibronectin was seeded with human retinal vascular endothelial cells (HRMECs) (Cell Systems) at a cell density of 5×10^4 cells/well, and the cells were cultured in Endothelial Cell Growth Medium MV 2 (PromoCell GmbH) under a 5% CO2 atmosphere at 37° C. for 6 days. Then, to the upper chamber and lower chamber of the Transwell, Compound 1 at a final concentration of 0 nM, 0.3 nM, 3 nM, or 30 nM, which had been prepared using 0.001% dimethyl sulfoxide-containing Endothelial Cell Growth Medium MV 2 as a vehicle, was added, and culture was continued. A well to which only the vehicle was added was used as a control. After 60 minutes of culture, 1 mg/mL of fluorescein isothiocyanate (FITC)-dextran (40 kDa: Sigma-Aldrich) was added to the upper chamber of the Transwell, and 60 minutes later, the fluorescence intensity of the medium in the lower chamber was measured to measure the amount of FITC-dextran permeating the lower chamber.

S1P1 receptor = S1P1 receptor (Homo sapiens, UniProt P21453); assay: GTP[γ35S] binding assay, S1P1 receptor agonist activity
[2] = test system: laser-induced choroidal neovascularization (CNV) model; assay: Laser-induced CNV model: fluorescein angiography (FA) grade; format: in vivo, mice; conditions: 0.3 mg/kg orally once daily; Day 14 (Comparative Example 1)
Experimental: A Mydrin-P ophthalmic solution (Santen Pharmaceutical Co., Ltd., Mydrin is a trademark) was dropped into the right eye of 8-week-old mice (Japan SLC, Inc., C56BL/6J strain) to cause mydriasis. A solution obtained by diluting a 7:1 mixed anesthetic solution of ketamine and xylazine 10-fold with physiological saline was administered at 10 mL/kg into the femoral muscle. After that, a 0.1% Hyalein (trademark) ophthalmic solution (Santen Pharmaceutical Co., Ltd.) was dropped into the eye so as to prevent the eyeball from drying. […]
Sampling was performed on the 14th day after the laser irradiation. The mice were anesthetized with 10 mL/kg of a solution obtained by diluting a 7:1 mixed anesthetic solution of ketamine and xylazine 10-fold with physiological saline, and then 0.1 mL of a 10-fold dilution of fluorescein (Alcon Japan Ltd.) was administered into the tail vein of the mice, followed by fluorescence fundus photography using Micron 4 (Phoenix Research Laboratories, Inc. Pleasanton, Calif., USA).
In FIG. 1 (a), Day 0 indicates images taken on the day of the laser irradiation, and Day 14 indicates images taken on the 14th day. In addition, for the image of each group on Day 14, an FA grade was determined for each laser irradiation site in accordance with grade criteria shown in Table 1 to evaluate the leakage of a fluorescent dye from a neovascularization site. […]

[3] = test system: laser-induced choroidal neovascularization (CNV) model; assay: Laser-induced CNV model: area of CNV in choroidal flat mount; format: in vivo, mice; conditions: 0.3 mg/kg orally once daily; Day 14 (Comparative Example 1; BZ-X710, Image J)
Experimental: After fluorescence fundus photography had been performed as described above in the section (1), 0.5 mL of fluorescein isothiocyanate dextran (FITC-dextran; 20 mg/mL, Sigma-Aldrich) was administered into the tail vein of the mice. The mice were euthanized by cervical dislocation, and the eyeball was extirpated. The extirpated eyeball was fixed in a 4% paraformaldehyde phosphate buffer for 12 hours. After that, the cornea and lens were excised under a microscope, and the remaining vitreous artery was removed with forceps. Further, the retina was removed, and the choroid was notched 8 points and embedded with Fluoromount (Diagnostic BioSystems) in a flat state to generate a choroidal flat mount specimen. The choroidal flat mount was photographed using a confocal laser scanning microscope (FLUOVIEW FV10i; Olympus, Tokyo, Japan). Next, on the basis of the photographed image, the CNV was encircled using analysis software OLYMPUS FLUOVIEW FV10i (Olympus), and the area thereof was determined as the area of CNV (μm^2). All analyses were performed in a blinded manner. After fluorescence fundus photography had been performed as described above in the section (1), a choroidal flat mount specimen was generated by the same method as in Example 1. The choroidal flat mount was photographed using an all-in-one fluorescence microscope (BZ-X710; Keyence, Osaka, Japan). Next, on the basis of the photographed image, the CNV was encircled using image editing software Image J, and the area thereof was determined as the area of CNV (μm^2). All analyses were performed in a blinded manner.

Body weight in CNV model = format: in vivo, mice; conditions: oral once daily dosing, vs vehicle group
Text: A case in which FA was unable to be performed owing to cloudiness caused by a flaw in the eye produced before the FA evaluation and a case in which CNV was connected at the time of the evaluation of the area of CNV were excluded from analysis, and the above-mentioned results were each calculated as a mean of 11 or 12 mice in each group. […] A case in which FA was unable to be performed owing to cloudiness caused by a flaw in the eye produced before the FA evaluation and a case in which CNV was connected at the time of the evaluation of the area of CNV were excluded from analysis, and the above-mentioned results were each calculated as a mean of 12 mice in each group.

S1P4 receptor = target: T1, S1P4 receptor (Homo sapiens, UniProt O95977); conditions: GTP[γ35S] binding assay; report PLoS One, 2014, 9(10), e110819; read-out: EC50 for S1P4 receptor agonist activity; cited from earlier work
T1 sequence (O95977 1-384): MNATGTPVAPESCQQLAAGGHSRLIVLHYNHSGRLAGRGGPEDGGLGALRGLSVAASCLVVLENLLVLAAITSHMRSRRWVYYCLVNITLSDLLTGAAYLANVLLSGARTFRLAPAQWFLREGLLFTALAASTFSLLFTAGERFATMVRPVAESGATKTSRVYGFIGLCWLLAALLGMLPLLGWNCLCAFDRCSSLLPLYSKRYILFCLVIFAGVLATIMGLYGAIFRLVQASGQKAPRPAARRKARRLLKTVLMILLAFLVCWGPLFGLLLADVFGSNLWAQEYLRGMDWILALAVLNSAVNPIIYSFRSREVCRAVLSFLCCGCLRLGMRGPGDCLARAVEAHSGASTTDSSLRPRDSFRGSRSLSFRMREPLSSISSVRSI

Sequence of S1P3 receptor (Q99500 whole entry): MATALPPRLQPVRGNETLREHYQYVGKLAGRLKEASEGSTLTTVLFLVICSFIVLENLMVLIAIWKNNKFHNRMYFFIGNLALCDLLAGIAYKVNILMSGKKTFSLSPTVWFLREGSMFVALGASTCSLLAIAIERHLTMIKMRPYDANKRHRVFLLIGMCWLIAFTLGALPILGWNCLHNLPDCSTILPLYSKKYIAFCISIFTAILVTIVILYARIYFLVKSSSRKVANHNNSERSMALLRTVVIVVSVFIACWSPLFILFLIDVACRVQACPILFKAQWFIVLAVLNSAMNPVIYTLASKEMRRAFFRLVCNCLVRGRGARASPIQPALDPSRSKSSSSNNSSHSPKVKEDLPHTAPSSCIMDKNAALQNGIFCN
Sequence of S1P1 receptor (P21453 whole entry): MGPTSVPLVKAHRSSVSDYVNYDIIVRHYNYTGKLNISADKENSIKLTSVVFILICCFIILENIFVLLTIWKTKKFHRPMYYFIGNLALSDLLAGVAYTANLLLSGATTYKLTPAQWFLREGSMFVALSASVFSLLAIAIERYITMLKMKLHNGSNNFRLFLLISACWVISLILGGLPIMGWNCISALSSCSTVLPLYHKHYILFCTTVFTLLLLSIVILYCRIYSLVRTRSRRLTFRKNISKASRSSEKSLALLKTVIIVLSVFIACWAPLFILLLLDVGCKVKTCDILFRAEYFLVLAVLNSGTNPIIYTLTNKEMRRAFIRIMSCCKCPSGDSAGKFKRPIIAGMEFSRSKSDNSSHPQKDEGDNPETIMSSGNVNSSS

## Cl.O=C(O)C1CCN(CC2=Cc3ccc(OCc4ccc(OCC(F)(F)F)c(C(F)(F)F)c4)cc3OC2)CC1 [Compound 2, 1-[(7-{[4-(2,2,2-trifluoroethoxy)-3-(trifluoromethyl)phenyl]methoxy}-2H-1-benzopyran-3-yl)methyl]piperidine-4-carboxylic acid monohydrochloride]
S1P3 receptor
  EC50: 1.76 µM
  EC50 for S1P3 receptor agonist activity as compared to that for the S1P1 receptor: ≥ 100 fold
[1]
  amount of FITC-dextran permeating the lower chamber (fluorescence intensity): significantly decreased the amount of FITC-dextran permeating the lower chamber
S1P1 receptor
  EC50: 0.0134 µM

## CCc1cc(/C(C)=N/OCc2ccc(C3CCCCC3)c(C(F)(F)F)c2)ccc1CN1CC(C(=O)O)C1 [Compound 3, 1-({4-[(1E)-N-{[4-cyclohexyl-3-(trifluoromethyl)phenyl]methoxy}ethanimidoyl]-2-ethylphenyl}methyl)azetidine-3-carboxylic acid]
[1]
  amount of FITC-dextran permeating the lower chamber (fluorescence intensity): significantly decreased the amount of FITC-dextran permeating the lower chamber

## CC(C)Oc1ccc(-c2nc(-c3cccc4c3CC[C@@H]4NCCO)no2)cc1C#N [Compound 4, 5-(3-{(1S)-1-[(2-hydroxyethyl)amino]-2,3-dihydro-1H-inden-4-yl}-1,2,4-oxadiazol-5-yl)-2-[(propan-2-yl)oxy]benzonitrile]
[1]
  amount of FITC-dextran permeating the lower chamber (fluorescence intensity): significantly decreased the amount of FITC-dextran permeating the lower chamber

## CCC/N=C1\S/C(=C\c2ccc(OC[C@H](O)CO)c(Cl)c2)C(=O)N1c1ccccc1C [Compound 5, (2Z,5Z)-5-({3-chloro-4-[(2R)-2,3-dihydroxypropoxy]phenyl}methylidene)-3-(2-methylphenyl)-2-(propylimino)-1,3-thiazolidin-4-one]
[1]
  amount of FITC-dextran permeating the lower chamber (fluorescence intensity): significantly decreased the amount of FITC-dextran permeating the lower chamber

## O=C(O)C[C@H]1CCc2c1[nH]c1ccc(OCc3ccc(C4CCCC4)c(C(F)(F)F)c3)cc21 [Compound 6, [(3R)-7-{[4-cyclopentyl-3-(trifluoromethyl)phenyl]methoxy}-1,2,3,4-tetrahydrocyclopenta[b]indol-3-yl]acetic acid]
[1]
  amount of FITC-dextran permeating the lower chamber (fluorescence intensity): significantly decreased the amount of FITC-dextran permeating the lower chamber

## NC(CO)(CCc1ccc(Sc2cccc(OCc3ccccc3)c2)cc1Cl)COP(=O)(O)O (stereo not shown) [Compound 7, 2-amino-4-(4-{[3-(benzyloxy)phenyl]sulfanyl}-2-chlorophenyl)-2-(hydroxymethyl)butyl dihydrogen phosphate]
[1]
  amount of FITC-dextran permeating the lower chamber (fluorescence intensity): significantly decreased the amount of FITC-dextran permeating the lower chamber

## CCCCCCCCc1ccc(CCC(N)(CO)CO)cc1.Cl [FTY720, 2-amino-2-[2-(4-octylphenyl)ethyl]propane-1,3-diol monohydrochloride, reference compound]
[2]
  FA grade as compared to the vehicle group: a significant lowering in FA grade was not found
[3]
  area of CNV: not found to significantly decrease the area of CNV
Body weight in CNV model
  change in body weight between the groups before sampling: a significant change in body weight between the groups before sampling was not found

## CCCCCCCCc1ccc(CCC(N)(CO)COP(=O)(O)O)cc1 (stereo not shown) [FTY720-P, 2-amino-2-(hydroxymethyl)-4-(4-octylphenyl)butyl dihydrogenphosphate, reference compound]
S1P4 receptor
  EC50: 0.0022 µM
